15 compounds from PubChem BioAssay (NCI) can be followed below.

Several values for one entry are separate records, joined by “and”; a condition that tells them apart may be missing. Equal values may be shown once.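 Assay format: 96-well plates, 48-hour exposure. The concentration for full growth arrest is given as TGI.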

One assay has as its system MDA-MB-435. Put plainly: growth of human tumour cells (NCI), 48 h.
`CC(=O)C(=C(c1ccccc1)c1ccccc1)c1ccccc1` gave a TGI of over 100 µM.
With `Cc1ccc2c(c1)[nH]c(=S)n2/C=C1\C(=O)Oc2ccccc2C1=O`, the TGI is over 100 µM.
As for `C=CCNC(=O)NC(=O)CSC1=NNC2(C(=O)N1)c1ccccc1-c1ccccc12`, the TGI was over 10 µM.
`O=C1CCCCC/C1=C\c1cccc(Cl)c1` had a TGI of 94.4 µM.
Turning to `COC(=O)C1(C(=O)OC)Cc2ccc(OC)cc2C2=C1C(=O)c1ccccc1C2=O`, the TGI was determined as 3.52 µM.
For `O=C1C(Cl)C2(CC(/C=C/c3ccccc3Cl)=NN2c2cccc(S(=O)(=O)O)c2)N1c1nc2ccccc2s1` (stereo unspecified), the TGI turned out to be 24.3 µM.
Compound `Nc1ncnn2c(C3OC(CO)C(O)C3O)ccc12` (stereo unspecified) displayed a TGI of 0.376 µM.
Same read-out and setting: the result for `COCCOC(=O)c1c(C)n([O-])c2cc(Cl)c(Cl)cc2[n+]1=O` reads 66.2 µM; that for `O=C(CC(=O)N(C(=O)/C=C\c1ccccc1)c1ccc(Cl)cc1)N1N=C(c2ccccc2)C(N=Nc2cccc([N+](=O)[O-])c2)C1=O` (stereo unspecified), over 100 µM.
In turn, `Cn1c(=O)c(Br)c(C=O)n(CCO[N+](=O)[O-])c1=O` had a TGI of 21.6 µM.
Consider `COc1ccc(-c2c(C#N)c(N)n(C3OCC(OC(C)=O)C(OC(C)=O)C3OC(C)=O)c(=S)c2C#N)cc1` (stereo unspecified), for which the TGI was 98.6 µM and > 100 µM.

In another assay the test system is SK-OV-3 ovarian. The assay can be described thus: growth of human tumour cells (NCI), 48 h.
For the compound `CCCCCCCCCCCCCCCCCCNc1ccn(C2OC(COP(=O)(O)OCC3OC(n4cc(F)c(=O)[nH]c4=O)CC3O)C(O)C2O)c(=O)n1` (stereo unspecified), the TGI is over 100 µM.
Still for that read-out and setting: the result for `CCOC(=O)/C(C#N)=C\c1ccc(N(CCC(=O)O)CCC(=O)O)c(I)c1` reads over 10 µM; that for `O=C(NC1=NCC(CN2CCN(c3ccccc3)CC2)O1)Nc1ccccc1` (stereo unspecified), over 100 µM; that for `Cc1cc2ccccc2n2c1nc1ccccc12`, over 100 µM.
The compound `CC(=O)C(=C(c1ccccc1)c1ccccc1)c1ccccc1` returned a TGI of over 100 µM.
The compound `C=CCNC(=O)NC(=O)CSC1=NNC2(C(=O)N1)c1ccccc1-c1ccccc12` registered a TGI of over 10 µM.
`O=C1CCCCC/C1=C\c1cccc(Cl)c1` yielded a TGI of over 100 µM.
Same read-out and setting: the result for `COCCOC(=O)c1c(C)n([O-])c2cc(Cl)c(Cl)cc2[n+]1=O` reads 47.5 µM; that for `O=C(CC(=O)N(C(=O)/C=C\c1ccccc1)c1ccc(Cl)cc1)N1N=C(c2ccccc2)C(N=Nc2cccc([N+](=O)[O-])c2)C1=O` (stereo unspecified), 40.7 µM; that for `Cn1c(=O)c(Br)c(C=O)n(CCO[N+](=O)[O-])c1=O`, 38.7 µM.
Regarding `COc1ccc(-c2c(C#N)c(N)n(C3OCC(OC(C)=O)C(OC(C)=O)C3OC(C)=O)c(=S)c2C#N)cc1` (stereo unspecified), the TGI is 85.2 µM and > 100 µM.

In another assay the test system is SW-620 colon. Put plainly: growth of human tumour cells (NCI), 48 h.
As to `CCCCCCCCCCCCCCCCCCNc1ccn(C2OC(COP(=O)(O)OCC3OC(n4cc(F)c(=O)[nH]c4=O)CC3O)C(O)C2O)c(=O)n1` (stereo unspecified), the TGI was over 100 µM.
In the case of `CCOC(=O)/C(C#N)=C\c1ccc(N(CCC(=O)O)CCC(=O)O)c(I)c1`, the TGI is over 10 µM.
Compound `O=C(NC1=NCC(CN2CCN(c3ccccc3)CC2)O1)Nc1ccccc1` (stereo unspecified) registered a TGI of over 100 µM.
The compound `Cc1cc2ccccc2n2c1nc1ccccc12` registered a TGI of over 100 µM.
Still for that read-out and setting: the result for `CC(=O)C(=C(c1ccccc1)c1ccccc1)c1ccccc1` reads over 100 µM.
Compound `Cc1ccc2c(c1)[nH]c(=S)n2/C=C1\C(=O)Oc2ccccc2C1=O` displayed a TGI of over 100 µM.
`C=CCNC(=O)NC(=O)CSC1=NNC2(C(=O)N1)c1ccccc1-c1ccccc12` came in with a TGI of over 10 µM.
As for `O=C1CCCCC/C1=C\c1cccc(Cl)c1`, the TGI was determined as 60.1 µM.
`COC(=O)C1(C(=O)OC)Cc2ccc(OC)cc2C2=C1C(=O)c1ccccc1C2=O`: the TGI is 16.9 µM.
In turn, `O=C1C(Cl)C2(CC(/C=C/c3ccccc3Cl)=NN2c2cccc(S(=O)(=O)O)c2)N1c1nc2ccccc2s1` (stereo unspecified) returned a TGI of over 100 µM.
Take `Nc1ncnn2c(C3OC(CO)C(O)C3O)ccc12` (stereo unspecified): the TGI worked out at 35.1 µM.
With `COCCOC(=O)c1c(C)n([O-])c2cc(Cl)c(Cl)cc2[n+]1=O`, the TGI was found to be 65.3 µM.
`O=C(CC(=O)N(C(=O)/C=C\c1ccccc1)c1ccc(Cl)cc1)N1N=C(c2ccccc2)C(N=Nc2cccc([N+](=O)[O-])c2)C1=O` (stereo unspecified) showed a TGI of 57.9 µM.
The same measure, in the same setting: with `Cn1c(=O)c(Br)c(C=O)n(CCO[N+](=O)[O-])c1=O` the figure was 5.45 µM; with `COc1ccc(-c2c(C#N)c(N)n(C3OCC(OC(C)=O)C(OC(C)=O)C3OC(C)=O)c(=S)c2C#N)cc1` (stereo unspecified), over 100 µM.

A further assay deals with PC-3 prostate. Put plainly: growth of human tumour cells (NCI), 48 h.
`CCCCCCCCCCCCCCCCCCNc1ccn(C2OC(COP(=O)(O)OCC3OC(n4cc(F)c(=O)[nH]c4=O)CC3O)C(O)C2O)c(=O)n1` (stereo unspecified) yielded a TGI of 19.7 µM.
Compound `CCOC(=O)/C(C#N)=C\c1ccc(N(CCC(=O)O)CCC(=O)O)c(I)c1` had a TGI of over 10 µM.
The compound `O=C(NC1=NCC(CN2CCN(c3ccccc3)CC2)O1)Nc1ccccc1` (stereo unspecified) returned a TGI of over 100 µM.
As to `Cc1cc2ccccc2n2c1nc1ccccc12`, the TGI was over 100 µM.
Same read-out and setting: the result for `CC(=O)C(=C(c1ccccc1)c1ccccc1)c1ccccc1` reads over 100 µM.
For `Cc1ccc2c(c1)[nH]c(=S)n2/C=C1\C(=O)Oc2ccccc2C1=O`, the TGI was over 100 µM.
In turn, `C=CCNC(=O)NC(=O)CSC1=NNC2(C(=O)N1)c1ccccc1-c1ccccc12` yielded a TGI of over 10 µM.
The same measure, in the same setting: with `O=C1CCCCC/C1=C\c1cccc(Cl)c1` the figure was 80.4 µM; with `COC(=O)C1(C(=O)OC)Cc2ccc(OC)cc2C2=C1C(=O)c1ccccc1C2=O`, 4.18 µM.
On the same count and under the same terms, the result for `O=C1C(Cl)C2(CC(/C=C/c3ccccc3Cl)=NN2c2cccc(S(=O)(=O)O)c2)N1c1nc2ccccc2s1` (stereo unspecified) reads over 100 µM.
Consider `Nc1ncnn2c(C3OC(CO)C(O)C3O)ccc12` (stereo unspecified), for which the TGI was 0.762 µM.
For `COCCOC(=O)c1c(C)n([O-])c2cc(Cl)c(Cl)cc2[n+]1=O`, the TGI was over 100 µM.
Compound `O=C(CC(=O)N(C(=O)/C=C\c1ccccc1)c1ccc(Cl)cc1)N1N=C(c2ccccc2)C(N=Nc2cccc([N+](=O)[O-])c2)C1=O` (stereo unspecified) came in with a TGI of 14.4 µM.
The same measure, in the same setting: with `Cn1c(=O)c(Br)c(C=O)n(CCO[N+](=O)[O-])c1=O` the figure was 23.5 µM; with `COc1ccc(-c2c(C#N)c(N)n(C3OCC(OC(C)=O)C(OC(C)=O)C3OC(C)=O)c(=S)c2C#N)cc1` (stereo unspecified), over 100 µM.

For the next assay, the system named is NCI-H226 lung. The assay can be described thus: growth of human tumour cells (NCI), 48 h.
On to `CCCCCCCCCCCCCCCCCCNc1ccn(C2OC(COP(=O)(O)OCC3OC(n4cc(F)c(=O)[nH]c4=O)CC3O)C(O)C2O)c(=O)n1` (stereo unspecified), for which the TGI was over 100 µM.
As for `CCOC(=O)/C(C#N)=C\c1ccc(N(CCC(=O)O)CCC(=O)O)c(I)c1`, the TGI was over 10 µM.
The same measure, in the same setting: with `O=C(NC1=NCC(CN2CCN(c3ccccc3)CC2)O1)Nc1ccccc1` (stereo unspecified) the figure was over 100 µM; with `Cc1cc2ccccc2n2c1nc1ccccc12`, over 100 µM; with `CC(=O)C(=C(c1ccccc1)c1ccccc1)c1ccccc1`, over 100 µM.
The compound `Cc1ccc2c(c1)[nH]c(=S)n2/C=C1\C(=O)Oc2ccccc2C1=O` registered a TGI of over 100 µM.
For `C=CCNC(=O)NC(=O)CSC1=NNC2(C(=O)N1)c1ccccc1-c1ccccc12`, the TGI is over 10 µM.
`O=C1CCCCC/C1=C\c1cccc(Cl)c1` came in with a TGI of over 100 µM.
`COC(=O)C1(C(=O)OC)Cc2ccc(OC)cc2C2=C1C(=O)c1ccccc1C2=O` displayed a TGI of 36.9 µM.
Turning to `O=C1C(Cl)C2(CC(/C=C/c3ccccc3Cl)=NN2c2cccc(S(=O)(=O)O)c2)N1c1nc2ccccc2s1` (stereo unspecified), the TGI was over 100 µM.
For `Nc1ncnn2c(C3OC(CO)C(O)C3O)ccc12` (stereo unspecified), the TGI was found to be 0.866 µM.
Compound `O=C(CC(=O)N(C(=O)/C=C\c1ccccc1)c1ccc(Cl)cc1)N1N=C(c2ccccc2)C(N=Nc2cccc([N+](=O)[O-])c2)C1=O` (stereo unspecified) displayed a TGI of 55.9 µM.
As to `Cn1c(=O)c(Br)c(C=O)n(CCO[N+](=O)[O-])c1=O`, the TGI was over 100 µM.
In turn, `COc1ccc(-c2c(C#N)c(N)n(C3OCC(OC(C)=O)C(OC(C)=O)C3OC(C)=O)c(=S)c2C#N)cc1` (stereo unspecified) registered a TGI of over 100 µM.
